# Target: human α2δ-1 subunit of Cav2.2 calcium channel (Homo sapiens (Human), UniProt P54289)
# Test: Binding assay to human α2δ-1 subunit of Cav2.2 calcium channel ([3H]-Gabapentin)
# Details: binding to α2δ-1, [3H]-Gabapentin; read-out: Ki (nM) α2δ-1
# In short: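 [3H]-gabapentin binding, 60 min at 27° C; nonspecific binding defined with 10 μM pregabalin. Terminated by filtration on PEI-presoaked GF/C filters, ice-cold 50 mM Tris-HCl pH 7.4 washes, then scintillation counting.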
# human α2δ-1 subunit of Cav2.2 calcium channel, sequence (P54289 25-1103): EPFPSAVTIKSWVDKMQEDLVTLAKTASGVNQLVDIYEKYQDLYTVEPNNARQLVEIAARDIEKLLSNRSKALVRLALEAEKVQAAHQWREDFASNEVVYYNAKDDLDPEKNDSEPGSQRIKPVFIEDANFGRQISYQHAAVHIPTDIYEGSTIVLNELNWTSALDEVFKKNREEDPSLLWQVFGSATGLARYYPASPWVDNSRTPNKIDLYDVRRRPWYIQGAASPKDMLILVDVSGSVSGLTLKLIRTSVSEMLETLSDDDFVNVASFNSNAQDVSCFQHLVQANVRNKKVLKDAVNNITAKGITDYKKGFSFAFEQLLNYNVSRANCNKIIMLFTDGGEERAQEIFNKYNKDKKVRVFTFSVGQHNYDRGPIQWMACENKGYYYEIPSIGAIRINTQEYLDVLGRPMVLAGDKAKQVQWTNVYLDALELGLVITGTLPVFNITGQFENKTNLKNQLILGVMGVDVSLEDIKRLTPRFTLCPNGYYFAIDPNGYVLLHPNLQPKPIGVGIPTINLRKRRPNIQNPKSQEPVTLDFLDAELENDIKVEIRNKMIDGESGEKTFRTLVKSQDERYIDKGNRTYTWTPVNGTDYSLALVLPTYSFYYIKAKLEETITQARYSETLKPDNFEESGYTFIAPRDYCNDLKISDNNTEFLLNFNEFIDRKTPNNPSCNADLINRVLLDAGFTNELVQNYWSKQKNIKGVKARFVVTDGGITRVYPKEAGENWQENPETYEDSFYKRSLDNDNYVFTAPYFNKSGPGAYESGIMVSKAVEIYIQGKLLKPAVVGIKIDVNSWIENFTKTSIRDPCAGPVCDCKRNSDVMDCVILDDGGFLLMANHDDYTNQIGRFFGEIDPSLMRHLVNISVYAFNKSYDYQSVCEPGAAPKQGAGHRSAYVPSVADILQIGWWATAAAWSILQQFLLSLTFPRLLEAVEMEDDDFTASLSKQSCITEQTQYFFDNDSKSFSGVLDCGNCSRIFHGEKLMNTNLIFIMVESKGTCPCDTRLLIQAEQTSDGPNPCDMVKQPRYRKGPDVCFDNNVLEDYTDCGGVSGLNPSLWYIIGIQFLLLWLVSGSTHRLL
row,SMILES,Ki [nM]
1,"CCNc1ncc2c(n1)N(C)CCN(Cc1ccc(OC(CN(C)C(=O)OC(C)(C)C)c3ccccc3)cc1)C2=O (stereo not drawn) [Example 136, tert-butyl (2-(4-((2-(ethylamino)-9-methyl-5-oxo-5,7,8,9-tetrahydro-6H-pyrimido[4,5-e][1,4]diazepin-6-yl)methyl)phenoxy)-2-phenylethyl)(methyl) carbamate]",> 3000
2,"CCNc1ncc2c(n1)N(C)CCN(Cc1ccc(CN(C)C(=O)OC(C)(C)C)cc1)C2=O [Example 137, tert-butyl (4-((2-(ethylamino)-9-methyl-5-oxo-5,7,8,9-tetrahydro-6H-pyrimido[4,5-e][1,4]diazepin-6-yl)methyl)benzyl) (methyl)carbamate]",> 3000
3,"COc1ncc2c(n1)N(C)CCN(c1cccc(CO[C@H](CCN(C)C(=O)OC(C)(C)C)c3ccccc3)c1)C2=O [Example 138, tert-Butyl (R)-(3-((3-(2-methoxy-9-methyl-5-oxo-5,7,8,9-tetrahydro-6H-pyrimido[4,5-e][1,4]diazepin-6-yl)benzyl)oxy)-3-phenylpropyl)(methyl)carbamate]",> 3000
4,"COc1ncc2c(n1)N(C)CCN(c1cccc(COC(CCN(C)C(=O)OC(C)(C)C)c3cccs3)c1)C2=O (stereo not drawn) [Example 139, tert-butyl (3-((3-(2-methoxy-9-methyl-5-oxo-5,7,8,9-tetrahydro-6H-pyrimido[4,5-e][1,4]diazepin-6-yl)benzyl)oxy)-3-(thiophen-2-yl)propyl)(methyl)carbamate]",> 3000
5,"Cc1ncc2c(n1)N(C)CCN(c1cccc(CO[C@H](CCN(C)C(=O)OC(C)(C)C)c3ccccc3)c1)C2=O [Example 142, tert-Butyl (R)-(3-((3-(2,9-dimethyl-5-oxo-5,7,8,9-tetrahydro-6H-pyrimido[4,5-e][1,4]diazepin-6-yl)benzyl)oxy)-3-phenylpropyl)(methyl)carbamate]",> 3000
6,"Cc1ncc2c(n1)N(C)CCN(c1cccc(OC(CCN(C)C(=O)OCC[Si](C)(C)C)c3cccs3)c1)C2=O (stereo not drawn) [Example 144, 2-(trimethylsilyl)ethyl (3-(3-(2,9-dimethyl-5-oxo-5,7,8,9-tetrahydro-6H-pyrimido[4,5-e][1,4]diazepin-6-yl)phenoxy)-3-(thiophen-2-yl)propyl)(methyl) carbamate]",> 3000
7,"CN(CC[C@@H](OCc1cccc(N2CCN(C)c3ncncc3C2=O)c1)c1ccccc1)C(=O)OC(C)(C)C [Example 145, tert-Butyl (R)-methyl(3-((3-(9-methyl-5-oxo-5,7,8,9-tetrahydro-6H-pyrimido[4,5-e][1,4]diazepin-6-yl)benzyl)oxy)-3-phenylpropyl)carbamate]",> 3000
8,"CN(CCC(Oc1cccc(N2CCN(C)c3ncncc3C2=O)c1)c1cccs1)C(=O)OCC[Si](C)(C)C (stereo not drawn) [Example 147, 2-(trimethylsilyl)ethyl methyl(3-(3-(9-methyl-5-oxo-5,7,8,9-tetrahydro-6H-pyrimido[4,5-e][1,4]diazepin-6-yl)phenoxy)-3-(thiophen-2-yl)propyl)carbamate]",> 3000
9,"CNCC(Oc1cccc(N2CCN(C)c3nc(SC)ncc3C2=O)c1)c1ccccc1 (stereo not drawn) [Example 155, 9-methyl-6-(3-(2-(methylamino)-1-phenylethoxy)phenyl)-2-(methylthio)-6,7,8,9-tetrahydro-5H-pyrimido[4,5-e][1,4]diazepin-5-one]",> 3000
10,"CCNc1ncc2c(n1)N(C)CCN(c1cccc(OC(C)CNC)c1)C2=O (stereo not drawn) [Example 157, 2-(ethylamino)-9-methyl-6-(3-((1-(methylamino)propan-2-yl)oxy)phenyl)-6,7,8,9-tetrahydro-5H-pyrimido[4,5-e][1,4]diazepin-5-one]",500 to 3000
11,"CCNc1ncc2c(n1)N(C)CCN(c1cccc(CCCNC)c1)C2=O [Example 171, 2-(ethylamino)-9-methyl-6-(3-(3-(methylamino)propyl)phenyl)-6,7,8,9-tetrahydro-5H-pyrimido[4,5-e][1,4]diazepin-5-one]",100 to 500
12,"CCNc1ncc2c(n1)N(C)CCN(c1cccc(OC3CCNC3)c1)C2=O (stereo not drawn) [Example 175, 2-(ethylamino)-9-methyl-6-(3-(pyrrolidin-3-yloxy)phenyl)-6,7,8,9-tetrahydro-5H-pyrimido[4,5-e][1,4]diazepin-5-one]",100 to 500
13,"CCNc1ncc2c(n1)N(C)CCN(c1cccc(O)c1)C2=O [Example 177, 2-(ethylamino)-6-(3-hydroxyphenyl)-9-methyl-6,7,8,9-tetrahydro-5H-pyrimido[4,5-e][1,4]diazepin-5-one]",> 3000
14,"CCNc1ncc2c(n1)N(C)CCN(c1ccc(O)cc1)C2=O [Example 178, 2-(ethylamino)-6-(4-hydroxyphenyl)-9-methyl-6,7,8,9-tetrahydro-5H-pyrimido[4,5-e][1,4]diazepin-5-one]",> 3000
15,"CCNc1ncc2c(n1)N(C)CCN(c1cccc(Cn3cc(CNC)nn3)c1)C2=O [Example 184, 2-(ethylamino)-9-methyl-6-(3-((4-((methylamino)methyl)-1H-1,2,3-triazol-1-yl)methyl)phenyl)-6,7,8,9-tetrahydro-5H-pyrimido[4,5-e][1,4]diazepin-5-one]",500 to 3000
16,"CCNc1ncc2c(n1)N(C)CCN(c1cccc(-n3cc(CNC)cn3)c1)C2=O [Example 185, 2-(ethylamino)-9-methyl-6-(3-(4-((methylamino)methyl)-1H-pyrazol-1-yl)phenyl)-6,7,8,9-tetrahydro-5H-pyrimido[4,5-e][1,4]diazepin-5-one]",100 to 500
17,"CCNc1ncc2c(n1)N(C)CCN(c1cccc(-n3cnc(CNC)c3)c1)C2=O [Example 186, 2-(ethylamino)-9-methyl-6-(3-(4-((methylamino)methyl)-1H-imidazol-1-yl)phenyl)-6,7,8,9-tetrahydro-5H-pyrimido[4,5-e][1,4]diazepin-5-one]",100 to 500

# The next lines start with the values.
row,Ki [nM],SMILES
1,> 3000,"CCNc1ncc2c(n1)N(C)CCN(Cc1cccc(OC(CN(C)C(=O)OC(C)(C)C)c3ccccc3)c1)C2=O (stereo not drawn) [Example 135, tert-butyl (2-(3-((2-(ethylamino)-9-methyl-5-oxo-5,7,8,9-tetrahydro-6H-pyrimido[4,5-e][1,4]diazepin-6-yl)methyl)phenoxy)-2-phenylethyl)(methyl) carbamate]"
2,> 3000,"CN(CC[C@@H](OCc1cccc(N2CCN(C)c3nc(O)ncc3C2=O)c1)c1ccccc1)C(=O)OC(C)(C)C [Example 140, tert-Butyl (R)-(3-((3-(2-hydroxy-9-methyl-5-oxo-5,7,8,9-tetrahydro-6H-pyrimido[4,5-e][1,4]diazepin-6-yl)benzyl)oxy)-3-phenylpropyl)(methyl)carbamate]"
3,> 3000,"CN(CCC(OCc1cccc(N2CCN(C)c3nc(O)ncc3C2=O)c1)c1cccs1)C(=O)OC(C)(C)C (stereo not drawn) [Example 141, tert-butyl (3-((3-(2-hydroxy-9-methyl-5-oxo-5,7,8,9-tetrahydro-6H-pyrimido[4,5-e][1,4]diazepin-6-yl)benzyl)oxy)-3-(thiophen-2-yl)propyl)(methyl)carbamate]"
4,> 3000,"Cc1ncc2c(n1)N(C)CCN(c1cccc(COC(CCN(C)C(=O)OC(C)(C)C)c3cccs3)c1)C2=O (stereo not drawn) [Example 143, tert-butyl (3-((3-(2,9-dimethyl-5-oxo-5,7,8,9-tetrahydro-6H-pyrimido[4,5-e][1,4]diazepin-6-yl)benzyl)oxy)-3-(thiophen-2-yl)propyl)(methyl) carbamate]"
5,> 3000,"CN(CCC(OCc1cccc(N2CCN(C)c3ncncc3C2=O)c1)c1cccs1)C(=O)OC(C)(C)C (stereo not drawn) [Example 146, tert-butyl methyl(3-((3-(9-methyl-5-oxo-5,7,8,9-tetrahydro-6H-pyrimido[4,5-e][1,4]diazepin-6-yl)benzyl)oxy)-3-(thiophen-2-yl)propyl)carbamate]"
6,> 3000,"CCNc1ncc2c(n1)N(C)CCN(c1cccc(OC(CN)c3ccccc3)c1)C2=O (stereo not drawn) [Example 156, 6-(3-(2-amino-1-phenylethoxy)phenyl)-2-(ethylamino)-9-methyl-6,7,8,9-tetrahydro-5H-pyrimido[4,5-e][1,4]diazepin-5-one]"
7,500 to 3000,"CCNc1ncc2c(n1)N(C)CCN(c1cccc(OC(CNC)C(C)C)c1)C2=O (stereo not drawn) [Example 158, 2-(ethylamino)-9-methyl-6-(3-((3-methyl-1-(methylamino)butan-2-yl)oxy)phenyl)-6,7,8,9-tetrahydro-5H-pyrimido[4,5-e][1,4]diazepin-5-one]"
8,100 to 500,"CCNc1ncc2c(n1)N(C)CCN(c1cccc(OCCCNC)c1)C2=O [Example 168, 2-(ethylamino)-9-methyl-6-(3-(3-(methylamino)propoxy)phenyl)-6,7,8,9-tetrahydro-5H-pyrimido[4,5-e][1,4]diazepin-5-one]"
9,100 to 500,"CCNc1ncc2c(n1)N(C)CCN(c1cccc(OCCNC)c1)C2=O [Example 170, 2-(ethylamino)-9-methyl-6-(3-(2-(methylamino)ethoxy)phenyl)-6,7,8,9-tetrahydro-5H-pyrimido[4,5-e][1,4]diazepin-5-one]"
10,100 to 500,"CCNc1ncc2c(n1)N(C)CCN(c1cccc(CCNC)c1)C2=O [Example 172, 2-(ethylamino)-9-methyl-6-(3-(2-(methylamino)ethyl)phenyl)-6,7,8,9-tetrahydro-5H-pyrimido[4,5-e][1,4]diazepin-5-one]"
11,500 to 3000,"CCNc1ncc2c(n1)N(C)CCN(c1cccc(CNC)c1)C2=O [Example 174, 2-(ethylamino)-9-methyl-6-(3-((methylamino)methyl)phenyl)-6,7,8,9-tetrahydro-5H-pyrimido[4,5-e][1,4]diazepin-5-one]"
12,100 to 500,"CCNc1ncc2c(n1)N(C)CCN(c1cccc(-n3cc(CNC)nn3)c1)C2=O [Example 180, 2-(ethylamino)-9-methyl-6-(3-(4-((methylamino)methyl)-1H-1,2,3-triazol-1-yl)phenyl)-6,7,8,9-tetrahydro-5H-pyrimido[4,5-e][1,4]diazepin-5-one]"
13,100 to 500,"CCNc1ncc2c(n1)N(C)CCN(c1cccc(-n3cc(CN)nn3)c1)C2=O [Example 181, 6-(3-(4-(aminomethyl)-1H-1,2,3-triazol-1-yl)phenyl)-2-(ethylamino)-9-methyl-6,7,8,9-tetrahydro-5H-pyrimido[4,5-e][1,4]diazepin-5-one]"

# Reference: US10590140B2, “Tetrahydropyrimidodiazepine and dihydropyridodiazepine compounds for treating pain and pain related conditions” (ESTEVE PHARMACEUTICALS, S.A., priority 2016, dated 2020)
